Source: patent US5660992A, “Sialic acid/fucose based assay reagents and assay methods” (Glycomed Incorporated, priority 1995, dated 1997)

Legend:
[1] = test system: neutrophil migration to the peritoneal cavity; assay: Murine thioglycollate induced peritonitis model; type: in vivo, mice; settings: FIG. 7; for inhibition of neutrophil migration into the peritoneum: female Swiss Webster mice, compound in tail vein, thioglycollate i.p., cells counted after three hours
Experimental: Mice were injected with saline alone (sal/-), thioglycollate and phosphate buffered saline (TG/PBS) or thioglycollate and GM 1221 or GM 1398 (TG/GM 1221 or TG/1398), and the number of neutrophils in the peritoneal cavity measured.
The efficaciousness of GM 1221, and GM 1398 was shown using a murine thioglycollate induced peritonitis model. The assay. materials and methods are known in the art, or are generally described by Lewinsohn, D. et al., J. Immun., 138:4313-4321 (1987), or Watson, S. et.al., Nature 349:164-166 (1991).
This assay measures the ability of the compounds to inhibit neutrophil migation to the peritoneal cavity, the migration being initiated by the presence of thioglycollate in the peritoneal cavity. Thioglycollate is a known and effective inflammatory agent that causes neutrophil migration into the mouse peritoneum when it is administered intraperitoneally. Lewinsohn, D. et al., J. Immun. (1987) 138:4313-4321.
Briefly, female Swiss Webster mice weighing about 25 grams were injected in the tail vein with 200 ul of phosphate buffered saline (PBS) with or without the appropriate compound. The pH of the solutions was adjusted to neutrality by the addition of either NaOH or HCL and sterilized by filtration through a 0.2 u filter.
Immediately following injection with the appropriate compound or PBS, the mice were injected intraperitoneally with 1 ml of thioglycollate medium prepared as described by the manufacturer, BBL. Three hours following injection of the thioglycollate solution the mice were sacrificed by CO2 asphyxiation, and the number of cells in the peritoneum removed by lavage with 5 ml of heparinized (5 U/ml) 0.9% sodium chloride solution containing 0.1% bovine serum albumin. Cell number was determined using a Coulter Counter. The cells were prepared for counting by diluting the lavage fluid with 1:50 of a commercial physiological isotonic solution, Isoton II, and the cells-lysed by adding S/P Lysing and Hemoglobin Reagent (1:100 final dilution). Cell nuclei were counted in a sized window with lower and upper limits set at 3.9 and 5.7 um, respectively.

L-selectin IgG chimera = molecular target: T1, L-selectin IgG chimera (Homo sapiens, UniProt P14151); assay: ELISA: blocking of L-selectin IgG chimera binding to 2,3sLex glycolipid; settings: FIG. 5 and FIG. 6; several concentrations
T1 sequence (P14151 39-332 limits assumed): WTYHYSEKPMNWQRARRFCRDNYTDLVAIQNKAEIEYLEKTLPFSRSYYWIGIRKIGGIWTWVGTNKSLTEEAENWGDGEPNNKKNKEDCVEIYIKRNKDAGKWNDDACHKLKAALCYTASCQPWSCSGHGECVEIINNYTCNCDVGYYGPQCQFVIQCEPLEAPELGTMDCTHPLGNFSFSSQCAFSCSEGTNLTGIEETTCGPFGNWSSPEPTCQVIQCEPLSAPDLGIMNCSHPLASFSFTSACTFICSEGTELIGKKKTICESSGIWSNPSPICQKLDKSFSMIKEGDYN
Source text: FIG. 5 is a graph showing the results of Elisa assays carried out to determine the ability of three different compounds to block the binding of 2,3,sialyl-Le^x to L-selectin IgG chimera. The compounds tested were GM 1222, GM 1279 and GM 1398. The results are expressed as per cent of control binding.
FIG. 6 is a graph showing the results of Elisa assays carried out to determine the ability of GM 1221 to block the binding of 2,3,sialyl-Le^x to L-selectin IgG chimera. The results are expressed as per cent of control binding.
An ELISA assay was employed that uses recombinant fusion proteins composed of extracellular portions of the human selectins joined to human immunoglobulin heavy chain CH3, CH2, and hinge regions. See, for example, Walz et al., Science (1990) 250:1132; Aruffo et al., Cell (1991) 67:35; Aruffo et al., Proc. Natl. Acad. Sci. USA (1992) 89:2292. […]
The positive control is the signal produced by the soluble receptor when it is allowed to react with 2,3sLex glycolipid in the microtiter wells in the absence of any inhibitor. […] The signal produced by the receptor that had been previously treated with an inhibitor (recorded as O.D.), was divided by the signal produced by the positive control and multiplied by 100 to calculate the % receptor bound to the well, or as expressed in the figures, the per cent of control binding. […]

| SMILES | inhibition of neutrophil migration into the peritoneum [1] | additional inhibition of neutrophil migration relative to GM 1221 ([1]; same mouse peritonitis model, comparison with GM 1221) | inhibition of L-selectin binding to 2,3sLex glycolipid (per cent of control binding) (L-selectin IgG chimera) |
| --- | --- | --- | --- |
| CC(=O)N[C@H]1[C@H]([C@H](O)[C@H](O)CO)O[C@@](OCCCCCCO[C@@H]2O[C@@H](C)[C@@H](O)[C@@H](O)[C@@H]2O)(C(=O)O)C[C@@H]1O [GM 1398, 1-O-α-Neu5Ac-(6-O-α-L-Fucopyranosyl)-Hexane] | inhibit neutrophil migration into the peritoneum | about 30% | – |
| CC(OCCCCCCOC1O[C@@H](C)[C@@H](O)[C@@H](O)[C@@H]1O)C(=O)O (stereo partly shown) [GM 1221] | inhibit neutrophil migration into the peritoneum | – | inhibits L-selectin binding |
